Consider 4 molecules from patent US9555061B2, “Synthesis and analysis of compounds capable of inducing differentiation of human mesenchymal stems cells into hepatocytes” (National University Corporation Torrori University, priority 2011, dated 2017).

Data set [1] has as its system clinical specimen-derived mesenchymal stem cells. Description: RT-PCR of hepatocyte differentiation marker in clinical specimen-derived mesenchymal stem cells. It counts as cell-based, human. The settings on record: hexachlorophene 4 μM, HC-2 20 μM, PN-3-13 20 μM, IC-2 40 μM. As to the method:
A fresh bone marrow aspirate was collected under informed consent from a patient (a person) with osteoarthritis who underwent replacement arthroplasty at the Department of Orthopedic Surgery, Tottori University Hospital. This aspirate was subjected to density gradient centrifugation using ficoll (Amersham Biosciences) to separate bone marrow mononuclear cells (FIG. 31). These bone marrow mononuclear cells were suspended in 1 ml of Hanks' balanced salt solution (HBSS, Gibco, Life Technologies Corp.) supplemented with a 100-fold diluted APC-labeled anti-CD90 antibody, a 407-fold diluted PE-labeled anti-CD271 antibody, and 2% fetal bovine serum (FBS, Defined, Thermo Fisher Scientific Inc.), and were stained on ice for 30 min. A flow cytometer (MoFlo XDP, Beckman Coulter Inc.) was used to selectively separate mesenchymal stem cells. The resulting cells were cultured in Dulbecco's Modified Eagle's Medium (Low Glucose, Gibco, Life Technologies Corp.) containing 20% FBS, 100 U/ml penicillin, […] streptomycin (Nacalai Tesque), and 20 ng/ml basic fibroblast growth factor (TRANS GENIC INC., Ltd.) on a 35-mm dish under conditions at 37° C. and 5% CO2. The medium was changed every 4 days. After colonies were formed, the cells were detached using a 0.025% trypsin/1 mM EDTA solution (Nacalai Tesque), split on a 100-mm dish, and cultured under conditions at 37° C. and 5% CO2. Then, the cells which were kept 70 to 80% confluent were detached using trypsin treatment. These cells in one dish were divided into four dishes for passage.
Cells were seeded on a 6-well plate at a cell density of 1.8×10^4 cells/cm^2. This day was designated as day 0. At day 1 corresponding to the next day, the medium was changed to a medium containing any one of hexachlorophene (at a final concentration of 4 μM), HC-2 (at a final concentration of 20 μM), PN-3-13 (at a final concentration of 20 μM), IC-2 (at a final concentration of 40 μM), and 0.1% DMSO. […]

For data set [2], the system named is CD90+CD271+ bone marrow-derived mesenchymal stem cells. Put plainly: Urea assay in CD90+CD271+ bone marrow-derived mesenchymal stem cells. The format is cell-based, human. As to conditions: hexachlorophene 4 μM, PN-3-13 20 μM, IC-2 40 μM; day 8 plus 96 h ammonium chloride. As for the experimental part:
A urea assay was performed according to the following protocol. CD90^+CD271^+ bone marrow-derived mesenchymal stem cells were seeded on a 24-well plate at a cell density of 1.8×10^4 cells/cm^2. This day was designated as day 0. At day 1 corresponding to the next day, each medium was changed to a medium containing hexachlorophene (at a final concentration of 4 μM), HC-2 (at a final concentration of 20 μM), PN-3-13 (at a final concentration of 20 μM), IC-2 (at a final concentration of 40 μM), or 0.1% DMSO. At day 4, the medium was changed in a manner similar to that at day 1, and the cells were cultured until day 8. At day 8, the medium was removed, and replaced with a medium containing ammonium chloride (Nacalai Tesque) at a final concentration of 5 mM. The cells were further cultured for 96 h. At 96 h after the addition of ammonium chloride, levels of urea in the medium were determined using a QuantiChrom Urea Assay Kit (BioAssay Systems) according to the attached protocol by reading the absorbance at a wavelength of 520 nm with a microplate reader. The levels of urea were calculated based on a standard sample according to the attached calculation method. As a negative control for the urea assay, used were CD90^+CD271^+ bone marrow-derived mesenchymal stem cells that were seeded one day before the day of the immunostaining and were not subjected to the differentiation induction.

Data set [3] has as its system UE7T-13 cells. Description: RT-PCR of genes encoding liver-specific secretory proteins and cytokines (UE7T-13). It counts as cell-based, human. As to conditions: hexachlorophene 0.8 μM or IC-2 15 μM; days 8, 16, 24. As to the method: Bone marrow-derived mesenchymal stem cells (UE7T-13 cells) were treated with a compound, hexachlorophene (H4625-25G; Sigma-Aldrich, Inc.) or IC-2. At that time, gene expression of each of liver-specific secretory proteins and cytokines was evaluated. […] This time point was set to day 0.
At the next day corresponding to day 1, the medium was changed to DMEM containing hexachlorophene at a final concentration of 0.8 μM or IC-2 at a final concentration of 15 μM. […] After that, the medium was replaced twice during 8 days, and the cells were subcultured every 8 days. Then, the similar operation was carried out until day 24. At days 8, 16, and 24 after the initiation of the induction, TRIzol (Invitrogen) was used to extract total RNA according to the attached instruction. After the extraction, deoxyribonuclease (Nippon Gene) was added, and the mixture was incubated at 37° C. for 30 min to remove DNA. In a reverse transcription reaction, SuperScriptII Reverse Transcriptase (Invitrogen) and Oligo(dT)15 primer were added to 1 μg of RNA to convert it into cDNA. In a RT-PCR method, the cDNA was diluted by 5 times. Next, 1 μl of the cDNA was used as a template. Then, rTaq DNA polymerase (TOYOBO) was used to amplify the cDNA. MQ water was used as a negative control. cDNA from Huh-7 or UE7T-13 cells was used as a positive control. […]

In data set [4] the test system is Wnt/β-catenin signaling pathway. Description: Ability of inhibiting Wnt/β-catenin pathway, luciferase assay (UE7T-13). The format is cell-based, human. As to conditions: 8 days after the treatment; pTCF4-CMV-luciferase reporter. From the text: FIG. 3 is a schematic diagram illustrating how to establish a human mesenchymal stem cell stably expressing a β-catenin/TCF4/luciferase reporter gene. FIG. 3 illustrates how to construct pTCF4-CMVpro-GL4.20 plasmid by using a luciferase expression vector. The pTCF4-CMVpro-GL4.20 plasmid contains three TCF4 sequences […] upstream of a CMV promoter to express luciferase. In addition, pCMVpro-GL4.20 plasmid was constructed as a control. The resulting plasmids were each linearized, introduced into UE7T-13 by electroporation, and selected using puromycin (0.25 μg/ml) supplemented in a medium. Puromycin-resistant cells were cloned and used for a luciferase assay.
The cell line having a vector stably expressing luciferase was seeded on a 24-well plate, and was cultured at 37° C. At the next day, the medium was changed to a medium containing IC-2, etc., and the cell line was further cultured at 37° C. After that, at days 1, 4, and 8, a luciferase assay system (Promega) was used and the luciferase activity was read with a fluorescence plate reader (ARVO) at a wavelength of 556 nm.

In data set [5] the test system is UE7T-13 cells. Description: Proliferation potential (toxicity), MTT assay (UE7T-13). As to conditions: for concentration with very low cell toxicity toward UE7T-13 cells: days 2, 4, 8 of treatment.
For data set [6], the system named is UE7T-13 cells. Description: Periodic acid-Schiff (PAS) staining (UE7T-13). It counts as cell-based, human. As to the method: (3-4) Periodic Acid-Schiff (PAS) Staining (UE7T-13) A cover glass (22×22 mm, […]) was sterilized with 70% EtOH and placed in a 6-well plate. Next, cells were seeded on the cover glass and cultured in a medium containing IC-2, etc. At 8, 16, and 24 days after the initiation of the culture, the cells were washed twice with PBS. Then, the cells were treated with 4% paraformaldehyde/PBS for 20 min and fixed onto the cover glass. As a negative control, 10 mg/ml of α-amylase (10 mg/ml; in 0.1 M phosphate buffer solution at pH 6.8) was added, and the cells were incubated therewith at 37° C. for 1 h to digest their glycogen. Subsequently, 1% aqueous periodic acid was used for oxidation treatment for 10 min. After that, the cells were treated with a Schiff reagent for 15 min to stain glycogen. Then, the cells were washed three times with aqueous sulfurous acid and were washed three times with distilled water. After their nuclei were stained with Mayer's hematoxylin, 50% glycerol diluted with PBS was used to mount the cover glass. Finally, the cells were observed under a light microscope. The cells which had been cultured with 0.1% DMSO were used as a control.

For the molecule `Oc1c(Cl)cc(Cl)c(Cl)c1Cc1c(O)c(Cl)cc(Cl)c1Cl` [hexachlorophene, reference compound], the expression of albumin result in data set [1] was “induced”. Also, in data set [2], the “cellular urea synthesis compared with negative control (0.1% DMSO)” value is “apparent increase”. Further, the “expression of a plurality of the liver-specific secretory proteins and cytokines” value in the data set on UE7T-13 cells [3] is “increased levels of expression”.
`Cc1ccc(/C=N/NC(=O)c2cccc(Oc3ccccc3)c2)o1` [PN-1-2, N′-[(E)-(5-methyl-2-fulyl)methylidene]-3-phenoxybenzohydrazide]: the “concentration that significantly inhibited the Wnt/β-catenin signaling pathway” value in data set [4] is no less than 3 µM. Also, the “concentration at which proliferation potential did not remain” value with UE7T-13 cells [5] (day 8) was found to be 10 µM. Moreover, the “concentration with very low cell toxicity toward UE7T-13 cells” value in the data set on UE7T-13 cells [5] is no more than 40 µM.
Turning to `Cc1ccc(C=NNC(=O)c2ccccc2Oc2ccccc2)o1` [PNU-74654, N-[(5-methyl-2-furyl)methylideneamino]-2-phenoxy-benzamide], in the data set with UE7T-13 cells [6], the “intracellular glycogen accumulation compared with negative control (0.1% DMSO)” value was “did not increase”.
In the case of `O=C(N/N=C/c1cccc2ccccc12)c1ccccc1Oc1ccccc1` [PN-3-4, N′-[(E)-1-naphtylmethylidene]-2-phenoxybenzohydrazide], the “concentration that significantly inhibited the Wnt/β-catenin signaling pathway” value in data set [4] is no less than 20 µM. In addition, the “concentration with very low cell toxicity toward UE7T-13 cells” value in the data set with UE7T-13 cells [5] is no more than 30 µM.
